This note sets out measurements from ChEMBL document CHEMBL3526122, “Identification of UDP-glucuronosyltransferases responsible for the glucuronidation of darexaban, an oral factor Xa inhibitor, in human liver and intestine” (Drug Metab Dispos, 2012).

This data set has as its target T1, UDP-glucuronosyltransferase 1A3 (Homo sapiens, UniProt P35503).
T1 sequence (P35503 whole entry): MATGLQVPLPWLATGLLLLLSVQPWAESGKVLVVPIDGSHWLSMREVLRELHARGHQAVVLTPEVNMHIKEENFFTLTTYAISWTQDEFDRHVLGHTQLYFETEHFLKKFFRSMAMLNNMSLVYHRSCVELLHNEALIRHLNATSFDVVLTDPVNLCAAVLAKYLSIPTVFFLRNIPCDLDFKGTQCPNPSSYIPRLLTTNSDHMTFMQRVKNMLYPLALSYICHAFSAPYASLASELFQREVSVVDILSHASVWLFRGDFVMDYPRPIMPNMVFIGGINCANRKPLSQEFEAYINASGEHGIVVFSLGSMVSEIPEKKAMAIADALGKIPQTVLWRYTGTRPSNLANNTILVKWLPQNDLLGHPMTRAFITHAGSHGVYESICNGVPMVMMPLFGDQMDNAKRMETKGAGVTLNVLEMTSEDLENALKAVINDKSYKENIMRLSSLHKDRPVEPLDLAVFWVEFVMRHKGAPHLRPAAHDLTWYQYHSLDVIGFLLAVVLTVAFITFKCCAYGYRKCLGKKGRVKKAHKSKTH
Put plainly: Activity of human recombinant UGT1A3 expressed in baculovirus-infected insect cells assessed as enzyme-mediated glucuronidation per mg of protein after 10 mins in presence of UDPGA. It counts as ADME.

Regarding `COc1ccc(C(=O)Nc2cccc(O)c2NC(=O)c2ccc(N3CCCN(C)CC3)cc2)cc1.O=C(O)CCC(=O)O`, the Drug metabolism is below 0.01 nmol/min/mg.
